PubChem BioAssay (NCI)
“And” between values parts separate entries of the source, which are not always exact repeats. Identical values can stand only once.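 Five concentrations, 48 hours, 96-well plates. GI50 is the concentration that inhibits growth by half. At the TGI there is no net growth.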

What was measured:
Test in all cases: NCI anticancer screen, dose series, 48 h
MOLT-4 leukemia = system: MOLT-4 leukemia
U251 CNS = system: U251 CNS
OVCAR-8 ovarian = system: OVCAR-8 ovarian
RXF 393 renal = system: RXF 393 renal
HS 578T breast = system: HS 578T breast
HOP-92 NSCLC = system: HOP-92 NSCLC
HCT-15 colon = system: HCT-15 colon
OVCAR-3 ovarian = system: OVCAR-3 ovarian
TK-10 renal = system: TK-10 renal
NCI-H226 lung = system: NCI-H226 lung

Row | SMILES | GI50 (MOLT-4 leukemia) | TGI (MOLT-4 leukemia) | GI50 (U251 CNS) | TGI (U251 CNS) | GI50 (OVCAR-8 ovarian) | TGI (OVCAR-8 ovarian) | GI50 (RXF 393 renal) | TGI (RXF 393 renal) | GI50 (HS 578T breast) | TGI (HS 578T breast) | GI50 (HOP-92 NSCLC) | TGI (HOP-92 NSCLC) | GI50 (HCT-15 colon) | TGI (HCT-15 colon) | GI50 (OVCAR-3 ovarian) | TGI (OVCAR-3 ovarian) | GI50 (TK-10 renal) | TGI (TK-10 renal) | GI50 (NCI-H226 lung) | TGI (NCI-H226 lung)
1 | CC1(C)[C@@H](OC(N)=O)[C@H]2O[C@H]2[C@]2(C=O)[C@H]3CC[C@]4(C)[C@@H](c5ccc(=O)oc5)[C@@H](Cl)C[C@]4(O)C3=CC[C@@H]12 | 0.00365 µM | 0.0112 µM | 0.00484 µM | 0.00952 µM | 0.00603 µM | 0.015 µM | 0.00717 µM | 0.237 µM | 0.00409 µM | 0.0192 µM | 0.00616 µM | 0.0198 µM | 0.0056 µM | 0.0128 µM | 0.00487 µM | 0.00981 µM | 0.00551 µM | 0.0123 µM | 0.00432 µM | 0.00811 µM
2 | O=C1NC(=O)C(CC2CCCCCCCCCCC2=O)C(=O)N1 (stereo not drawn) | – | > 100 µM | – | > 100 µM | – | > 100 µM | – | > 100 µM | – | > 100 µM | – | > 100 µM | – | > 100 µM | – | > 100 µM | – | > 100 µM | – | > 100 µM
3 | O=C1CSC(c2ccc(Cl)cc2Cl)N1c1ccc(F)cc1 (stereo not drawn) | 18.5 µM | 43.4 µM | 17.8 µM | 31.7 µM | 19 µM | 35.7 µM | 27.4 µM | 56 µM | 16.8 µM | 39.9 µM | 17.6 µM | 32.8 µM | 17.2 µM | 31 µM | 17.2 µM | 32.1 µM | 14.4 µM | 27.7 µM | 18.2 µM | 38.2 µM
4 | CCc1nc(C(N)=O)c(Nc2ccc(N3CCC(N4CCN(C)CC4)CC3)c(OC)c2)nc1NC1CCOCC1 | 3.55 µM and 0.794 µM and 4.06 µM | 21.5 µM and > 2.7 µM and 25.4 µM | 5.9 µM and 1.28 µM and 7.96 µM | 19.8 µM and > 3.84 µM and 21.2 µM | 10.3 µM and 1.62 µM and 10.1 µM | 36.8 µM and > 10 µM and 30.2 µM | 1.39 µM and 0.358 µM and 1.7 µM | 4.54 µM and 1.12 µM and 6.27 µM | 1.56 µM and 0.514 µM and 1.85 µM | 9.48 µM and > 2.32 µM and 11.3 µM | 0.173 µM and 0.0827 µM and 0.247 µM | 1.62 µM and 0.64 µM and 1.63 µM | 1.68 µM and 0.38 µM and 1.41 µM | 15.7 µM and > 10 µM and 16 µM | 8.01 µM and 3.69 µM and 9.27 µM | 22.9 µM and > 10 µM | 1.75 µM and 0.23 µM and 1.35 µM | – | 5.45 µM and > 10 µM and 5.78 µM | 28.8 µM and > 10 µM and 30 µM
5 | CCn1c(SCc2ccc(C)cc2)nnc1-c1nn(-c2ccc(Cl)cc2Cl)c(-c2ccc(Cl)cc2)c1C | 2.15 µM | 11 µM | 0.925 µM | 11.8 µM | 2.12 µM | 10.7 µM | 2.69 µM | 10.9 µM | 3.3 µM | 18.4 µM | 0.53 µM | 4.22 µM | 2.7 µM | 11.4 µM | 1.98 µM | 11.6 µM | 2.61 µM | 10.9 µM | 2.26 µM | 13.9 µM
6 | CCCCON(OC(=O)c1ccc2ccc3cccc4ccc1c2c34)C(C)=O | 17.4 µM | 37.2 µM | 18.1 µM | 36.5 µM | 28.9 µM | > 100 µM | 19.7 µM | 50.2 µM | 18.8 µM | 66.6 µM | 16.3 µM | 44.3 µM | 30.9 µM | > 100 µM | 31.8 µM | 82.7 µM | 30.5 µM | 87.9 µM | 21 µM | 53.3 µM
7 | C=C1C(=O)OC2/C=C(\COC(C)=O)CCC(OC(C)=O)C3=CC(OC3=O)C12 (stereo not drawn) | – | 5.74 µM | – | 33.9 µM | – | 9.6 µM | – | 3.28 µM | – | 52.8 µM | – | 12.5 µM | – | 7.76 µM | – | 12.4 µM | – | 15.4 µM | – | 46.4 µM
8 | O=C(O)C1C(Br)(c2ccccc2)C1(Br)c1ccccc1 (stereo not drawn) | – | > 100 µM | – | > 100 µM | – | 84.6 µM | – | 41.7 µM | – | > 100 µM | – | > 100 µM | – | 47.5 µM | – | > 100 µM | – | > 100 µM | – | > 100 µM
9 | ClCC[N+]12CC[N+](CCCl)(CC1)C2 | – | > 100 µM | – | > 100 µM | – | > 100 µM | – | > 100 µM | – | > 100 µM | – | > 100 µM | – | > 100 µM | – | > 100 µM | – | > 100 µM | – | > 100 µM
10 | CC/C=C\C[C@H]1C/C=C2/C(=O)C=C[C@@H]2C/C=C\CCCC(=O)O1 | 0.604 µM | 5.21 µM | 0.779 µM | 2.49 µM | 0.338 µM | 10.7 µM | 1.57 µM | 3.1 µM | 4.34 µM | 38.1 µM | 2.34 µM | 5.93 µM | 0.423 µM | 2.86 µM | 0.734 µM | 3.9 µM | 1.8 µM | 5.03 µM | 1.94 µM | 4.75 µM
11 | CC1=C(O)C(=O)C=C2C1=CC=C1[C@@]2(C)CC[C@@]2(C)[C@@H]3C[C@](C)(C(=O)O)CC[C@]3(C)CC[C@]12C | – | – | – | 0.139 µM | – | 0.0712 µM | – | 0.024 µM | – | 3.7 µM | – | 0.0777 µM | – | 0.0282 µM | – | 0.0941 µM | – | 0.0804 µM | – | 0.366 µM
12 | Clc1ccc(C=Nc2ccc3c(c2)Cc2ccccc2-3)c(Cl)c1 | – | > 100 µM | – | > 100 µM | – | > 100 µM | – | > 100 µM | – | > 100 µM | – | > 100 µM | – | > 100 µM | – | > 100 µM | – | > 100 µM | – | > 100 µM
13 | O=C1Nc2ccc(F)cc2/C1=C/c1ccc[nH]1 | > 25 µM | > 25 µM | > 25 µM | > 25 µM | > 25 µM | > 25 µM | > 18.3 µM | > 25 µM | > 25 µM | > 25 µM | > 14.1 µM | > 25 µM | 11.5 µM | > 25 µM | > 18.4 µM | > 25 µM | 14.4 µM | > 25 µM | > 25 µM | > 25 µM
14 | Nc1nc(F)nc2c1ncn2C1OC(CO)C(O)C1O (stereo not drawn) | – | > 100 µM | 70.7 µM | > 100 µM | 3.64 µM | > 100 µM | 97.6 µM | > 100 µM | – | > 100 µM | 14 µM | > 100 µM and 97.6 µM | 56.7 µM | > 100 µM | – | > 100 µM | – | > 100 µM | – | > 100 µM
15 | CCOc1cc(C(C)(C)C)ccc1C1=N[C@@](C)(c2ccc(Cl)cc2)[C@@](C)(c2ccc(Cl)cc2)N1C(=O)N1CCN(CCCS(C)(=O)=O)CC1 | 0.375 µM | > 100 µM | 12.2 µM | 45.9 µM | 12 µM | > 100 µM | 3.39 µM | 14.4 µM | 9.26 µM | 35.2 µM | 2.31 µM | 8.17 µM | 2.3 µM | 6.01 µM | 11.5 µM | 25.7 µM | 10.3 µM | 46.9 µM | 0.462 µM | 2.11 µM
